First: O=c1c2c(Cc3ccccc3)n[nH]c2c2cnccc2n1-c1ccccc1
Second: S=c1c2c(ncn2Cc2cccnc2)c2cccnc2n1-c1ccccc1
The melting point of the first is higher: 284 to 287 °C for the first, 222 to 224 °C for the second.

First: Cc1ccc(S(=O)(=O)C(C)(C)C(=O)c2ccccc2)cc1
Second: O=C1/C(=C(\NC2CC2)c2ccccc2)Sc2ccccc21
The melting point of the first is lower: 64 to 64.5 °C for the first, 131 to 132 °C for the second.

First: Cn1nc(C(F)(F)F)cc1Oc1ccnc(-c2ccc(F)cc2)n1
Second: O=C(Nc1nc(C(F)(F)F)co1)C1c2ccccc2Oc2cc(F)ccc21 (racemic)
The melting point of the first is lower: 101 to 102 °C for the first, 221 °C for the second.

First: CC(C)(C)OC(=O)N1CCC(n2c(=O)[nH]c3ccccc32)CC1
Second: O=c1[nH]c2nc3ccccc3n2c(=O)n1C1CCCCC1
The melting point of the first is lower: 161 to 163 °C for the first, 335 °C for the second.

First: COc1ccc(-c2nc(O)c(-c3ccccc3)s2)cc1
Second: COC(=O)Nc1cn2c(S(=O)c3ccccc3)cccc2n1 (stereo not drawn)
The melting point of the first is lower: 218 to 221 °C for the first, 249 to 251 °C for the second.

`OC1(CNCc2ccccc2)CCN(CCCc2c[nH]c3ccc(-n4cnnc4)cc23)CC1` and `O=C(Nc1ccccc1)C1=CCN(Cc2c[nH]c3ncccc23)CC1` cannot be ordered by melting point: greater than 60 °C for the first, 217 to 220 °C for the second.

Compared with `O=C(O)CNC[C@H]1O[C@H](c2ccccc2Cl)c2cc(Cl)ccc2N(Cc2ccccc2)C1=O` (relative stereo), `O=C1c2ccccc2C(=O)N1CC(=O)N1c2ccccc2N(Cc2ccccc2)C(=O)CC1c1ccccc1` (stereo not drawn) is lower in melting point: 224 to 226 °C for the first, 127 to 128 °C for the second.

First: CC(C)(S)CNC(=O)c1nccnc1C(=O)O
Second: CCOC(=O)c1nc(C(C)(C)C)nc2ccccc12
The melting point of the first is higher: 141 to 144 °C for the first, 46 to 47 °C for the second.

`O=C(O)COc1coc2ccccc2c1=O` and `O=C(O)CCOCCCc1ccnc(-c2nc(=O)c3ccccc3s2)c1` cannot be ordered by melting point: 154 to 164 °C for the first, 154 °C for the second.

First: CCCCCCCNC(=O)Nc1cc(N(C)C)ccc1C(=O)NC1CCN(C(c2ccccc2)c2ccccc2)CC1
Second: CC(CCCC(=O)CCCC(C)(C(=O)O)c1ccccc1)(C(=O)O)c1ccccc1 (stereo not drawn)
The melting point of the first is higher: 87 °C for the first, 44 to 46 °C for the second.

First: O=C(c1cc(C(F)(F)F)cc(C(F)(F)F)c1)N1CCOc2nccc(-c3ccccc3)c2C1
Second: Cc1c2cccc(-c3cccc(C(=O)NCCO)c3)c2nn1Cc1cccc(C(F)(F)F)c1
The melting point of the first is higher: 179 to 180 °C for the first, 142 to 143 °C for the second.

First: CN(C(=O)Nc1ccc(F)cc1F)c1cnc2ccc(Cl)cc2c1-c1ccccc1
Second: CN(CCOc1ccc(CC(Sc2ccc(Cl)cc2)C(=O)O)cc1)c1nc2ccccc2o1 (stereo not drawn)
The melting point of the first is higher: 200 to 201 °C for the first, 156 to 157 °C for the second.

First: COc1cccc(CC(=O)O)c1OCCCc1cn(-c2ccc(C#N)nn2)nc1C(C)C
Second: CCCCCCc1nccc2c(CC(=O)O)cccc12
The melting point of the first is lower: 132 to 133 °C for the first, 152 °C for the second.

Compared with `CCOC(=O)c1cnc2c3ccc(OC)cc3ccn2c1=O`, `CCOC(=O)CCC1Cn2c(-c3ccc(OC)cc3)c(C)c3cccc(c32)O1` (stereo not drawn) is lower in melting point: 212 °C for the first, 154 °C for the second.

`CCOC(=O)C(C)Oc1ccc(N(C)c2nc3cc(Cl)ccc3o2)cc1` (stereo not drawn) and `COC(=O)c1cccc(Oc2cccc(Br)n2)c1` cannot be ordered by melting point: 68 to 68.6 °C for the first, 68 to 69 °C for the second.

First: O=C1C(=O)c2ccccc2C2=C1SCC1(CCN(CC(O)COc3ccc4ccccc4c3)CC1)O2 (stereo not drawn)
Second: O=C(Oc1ccccc1)N1CCC2(CC1)c1ccccc1Oc1ccccc12
The melting point of the first is higher: 164 to 167 °C for the first, 105 to 107 °C for the second.

First: CCCC(=O)c1c[nH]c2c(OC)cc(OC(=O)c3ccccc3)cc2c1=O
Second: CCCC(=O)c1cnc2c(O)cccc2c1Nc1ccccc1C
The melting point of the first is lower: 102 to 104 °C for the first, 113 to 115 °C for the second.

First: CNC(=O)N(O)C(C)c1ccc(F)cc1F (stereo not drawn)
Second: CC(C)(C)OC(=O)N1CCC(C(c2cc(F)ccc2F)S(=O)(=O)c2ccc(Cl)cc2)CC1 (stereo not drawn)
The melting point of the first is lower: 125 to 134 °C for the first, 193 to 196 °C for the second.

Compared with `CN(C)c1cc(CC(C#N)=CNc2ccccc2)cc(N(C)C)c1N1CCCCC1`, `COc1cc2c(cc1OCc1ccccc1)CCN(C(=O)c1cccc(C#N)c1)C2=O` is lower in melting point: 200 to 202 °C for the first, 195 to 196 °C for the second.

First: COc1ccc(C(=O)Nc2c(Cl)cncc2Cl)cc1OC1CCCC1F (stereo not drawn)
Second: COC(=O)c1ccc(N=Cc2ccc(Cl)c(Cl)c2)cn1
The melting point of the first is lower: 167 to 169 °C for the first, 202 to 207 °C for the second.

Compared with `COc1cc(-c2c(Cl)c(CN3CCCC3=O)nc3sc4c(c23)CCN(Cc2ccccc2)C4)ccc1O`, `COc1ccc(-c2c(Cl)c(CCl)nc3sc4c(c23)CCN(Cc2ccccc2)C4)cc1OC` is lower in melting point: 190 to 191 °C for the first, 171 to 172 °C for the second.

Compared with `COc1cc(N)c2nccc(C)c2c1OCCCCc1ccccc1`, `COCCc1nc2c(N)nc3cc(OCc4ccccc4)ccc3c2n1CC(C)(C)O` is higher in melting point: 59 to 59.5 °C for the first, 185 to 186 °C for the second.

First: O=S(=O)(Nc1ccc2c(OCc3coc(-c4ccc(Br)cc4)n3)cccc2c1)C(F)(F)F
Second: O=C(NCc1cccc(C(F)(F)F)c1)c1cncc2c1cnn2-c1ccc(F)cc1
The melting point of the first is higher: 205 to 207 °C for the first, 172 to 173 °C for the second.

First: O=C(c1ccnc(Cl)c1)N1CC2(CCN(CC=Cc3ccc(C(F)(F)F)cc3)CC2)c2cc(Cl)ccc21
Second: O[C@H](COc1cccc2[nH]ccc12)CN1CC=C(c2c[nH]c3c(Cl)c(Cl)ccc23)CC1
The melting point of the first is lower: 130 °C for the first, 140 to 145 °C for the second.

Compared with `CCCN(CCC)C1Cc2cccc3ccc(=O)n(c23)C1` (stereo not drawn), `CCCN(CCC)c1nc2c(N3CCCC3)nccc2c(=O)[nH]1` is higher in melting point: 82 to 84 °C for the first, 220 °C for the second.

First: Cc1ccc(C(=O)C2(n3ccnc3)CC2)cc1
Second: Nc1ccc(C(=O)c2cccc3c2NCC3)cc1
The melting point of the first is lower: 88 to 90 °C for the first, 133 to 135 °C for the second.

First: CC(C)N[C@@H]1Cc2cccc(O)c2C[C@H]1O (relative stereo)
Second: CN1CCC(N2CC=CC3=C2C(O)c2ccc(Cl)cc2SC3)CC1 (stereo not drawn)
The melting point of the first is lower: 138 to 140 °C for the first, 158 to 160 °C for the second.

First: COc1cccc2c1C(OC)(OC)C=CC2=O
Second: CC(=O)ON=c1c2nccc3cccc(c32)n2cccc12
The melting point of the first is lower: 62 to 63 °C for the first, 177 to 179 °C for the second.

First: Clc1ncccc1-c1ccccc1
Second: O=C(O)C(=O)c1ccc(OCc2ccccc2)c(Cl)c1
The melting point of the first is lower: 48 °C for the first, 134 to 135 °C for the second.

Compared with `CCOCCS(=O)(=O)C(F)(F)C(O)(Cn1cncn1)c1ccc(F)cc1F` (stereo not drawn), `CC(C)(CC(O)(Cn1ccc2c1CCCC2=O)C(F)(F)F)c1cc(-c2cncnc2)cc2c1OCC2` (stereo not drawn) is higher in melting point: 89 to 91 °C for the first, 213 to 214 °C for the second.

First: CCC1c2ccc(F)n2-c2ccc(Br)cc2N1S(=O)(=O)c1ccc(O)cc1 (stereo not drawn)
Second: CCCCc1nc(SC)c(C(=O)OCC)n1Cc1cccc(-c2ccccc2S(=O)(=O)NC#N)c1
The melting point of the first is higher: 160 to 162 °C for the first, 118 °C for the second.

Compared with `C[C@@H]1CN(C(=O)OC(C)(C)C)C[C@H]2Cc3cc(F)c(C=O)nc3N21`, `CC(C)(C)OC(=O)c1ccc(CBr)cc1` is lower in melting point: 139 to 140 °C for the first, 53.4 °C for the second.

First: COC(=O)CN(C1(C(=O)C2CCCCC2)C=C(Cl)C=CC1)S(=O)(=O)c1ccc(OC)cc1 (stereo not drawn)
Second: CC[C@H](C)[C@@H](CO)NS(=O)(=O)c1ccc(I)cc1
The melting point of the first is lower: 115 to 116 °C for the first, 118 to 120 °C for the second.

Compared with `CO[C@@H]1C(S(=O)(=O)c2ccccc2)=C[C@H](C)[C@@H](O[Si](C)(C)C(C)(C)C)[C@@H](C)[C@@H]1O[Si](C)(C)C(C)(C)C`, `Cc1ccc(OC2CCC3C4CC=C5CC(O[Si](C)(C)C(C)(C)C)CCC5(C)C4CCC23C)cc1` (stereo not drawn) is higher in melting point: 94 to 96 °C for the first, 137 to 138 °C for the second.

`O=C1NC2COc3cc4c(cc3C2c2ccsc21)OCO4` (stereo not drawn) and `Cc1nc2ccccn2c1C1=NNC(=O)CO1` cannot be ordered by melting point: greater than 250 °C for the first, 278 to 280 °C for the second.

Compared with `COc1ccc2c(c1)C(=O)c1c-2c(Nc2ccc(C(C)=O)cc2)nc2ccccc12`, `CN(C(=O)N[C@@H](Cc1ccc(Nc2nccc3cnccc23)cc1)C(=O)O)c1ccccc1Cc1ccccc1` is lower in melting point: 251 to 252 °C for the first, 141 °C for the second.

First: O=C1CC2(C(=O)N1)c1ccccc1Oc1ccccc12
Second: c1ccc(N=C(Nc2ccccc2)c2ccccc2)cc1
The melting point of the first is higher: 226 to 228 °C for the first, 143 to 144 °C for the second.

Compared with `CN1Cc2c(C#CC3CC3)ncn2-c2cccc(Cl)c2C1=O`, `Cc1ccccc1N1C(=O)CN2C(=O)CCC21` (stereo not drawn) is lower in melting point: 177 to 178 °C for the first, 138 to 139 °C for the second.

`CCCCc1nc(C(C)(C)O)c(C(=O)OCc2oc(=O)oc2C)n1Cc1ccc(-c2ccccc2C(=O)O)cc1` and `CC(C)Cn1cnc2c(N)nc3ccc(-c4ccc(C(C)(C)C)cc4)cc3c21` cannot be ordered by melting point: greater than 70 °C for the first, greater than 250 °C for the second.

First: Cc1nn(-c2c(Cl)cc(C(F)(F)F)cc2Cl)c(N)c1I
Second: CC(C)(N)c1cc(Cl)c(Cl)c(Cl)c1
The melting point of the first is higher: 116 to 118 °C for the first, 56 to 59 °C for the second.

First: COC(=O)Nc1cc(N2CC=CCC2)nc2nc(=O)on12
Second: CC(=O)Nn1cc(-c2cccnc2)nc1Cl
The melting point of the first is higher: 213 to 214 °C for the first, 129 to 131 °C for the second.

First: O=C1C=c2c(c3[nH]c4c(c3c3c2=CN=C3)CCCC4)C1
Second: CCCn1c(=O)nc(SC)c2[nH]c(C3CCCC3)nc21
The melting point of the first is higher: greater than 300 °C for the first, 258 to 259 °C for the second.

Compared with `CON=Cc1cc(-n2c(=O)cc(C(F)(F)F)n(C)c2=O)c(F)cc1Cl`, `O=C(O)CN1CC(=O)N(Cc2cccc([N+](=O)[O-])c2)C1=O` is higher in melting point: 141 to 142 °C for the first, 165 to 166 °C for the second.

First: CCCCCCCCC1C=CC(/C=C/c2ccc(C(=O)O)o2)=C2N=C3C(=C21)CC(C)(C)CC3(C)C (stereo not drawn)
Second: CCCCCCCCCCCCOc1ccc(CO)cc1
The melting point of the first is higher: 156 to 158 °C for the first, 66.5 to 67 °C for the second.

Compared with `CC(=Nc1ccc2c(c1)C(=O)c1ccc(N=C(C)N3CCC(C)CC3)cc1C2=O)N1CCC(C)CC1`, `O=C1C=CC(=O)N1c1ccc(S(=O)(=O)C(I)I)cc1` is higher in melting point: 200 to 202 °C for the first, 217 °C for the second.

First: Cc1nc(C#CCCc2nc3ccccc3o2)cn1C
Second: CCn1ncc2nc(C(=O)OCC#N)c(-c3ccccc3)nc21
The melting point of the first is higher: 117 to 119 °C for the first, 102 to 103 °C for the second.

First: CC(C#N)(Cc1c[nH]cn1)c1ccccc1 (stereo not drawn)
Second: OCCCn1cc(-c2cc3nccnc3[nH]2)c2ccccc21
The melting point of the first is lower: 187 to 189 °C for the first, 220 to 221 °C for the second.

First: O=Cc1ccc2cc[nH]c2c1
Second: Cc1ccc2[nH]c(=O)sc2c1
The melting point of the first is higher: 126 to 128 °C for the first, 70 to 71 °C for the second.

First: COC(=O)Nc1ccc2ccccc2c1-c1c(P(c2ccccc2)c2ccccc2)ccc2ccccc12
Second: CCN(CC)CCCNC(=S)N(CCS(=O)(=O)c1ccccc1)C(C)C
The melting point of the first is lower: 92.1 °C for the first, 120 to 121 °C for the second.

From a melting point compilation (Tetko et al.; mined from patent text by program, amines drawn as free bases though some values may be those of a salt)
